# Laboratory results reported in patent US9328374B2, “Selective culture medium and method for detecting carbapenem-resistant bacteria in a test sample” (Institut National de la Sante et de la Recherche Medicale …, priority 2011, dated 2016).
# What was measured:
# Assay in all cases: MIC of imipenem, ertapenem and meropenem
# E. coli = format: cell-based, Escherichia coli
# E. aerogenes = format: cell-based, Enterobacter aerogenes
# S. typhimurium = format: cell-based
# C. koseri = format: cell-based
# P. stuartii = format: cell-based, Providencia stuartii
# E. cloacae = format: cell-based, Enterobacter cloacae
compound,measurement,setting,value
"C[C@@H](O)[C@H]1C(=O)N2C(C(=O)O)=C(SCCN=CN)C[C@H]12 [IPM, imipenem]",MIC,"E. coli; E. coli OM22, OXA-48 + TEM-1 + CTX-M-15",0.5 µg/mL
same,MIC,E. coli; E. coli PSP (KPC-2),0.5 µg/mL
same,MIC,"E. coli; E. coli PSP, KPC-2 + TEM-1 + OXA-1",0.5 µg/mL
same,MIC,E. coli; E. coli RIC (NDM-1 + OXA-1 + OXA-10 + CMY-16),1 µg/mL
same,MIC,"E. coli; E. coli RIC, NDM-1 + CMY-16 + OXA-1 + OXA-10",1 µg/mL
same,MIC,E. coli; E. coli ROB (OXA-48),0.5 µg/mL
same,MIC,"E. coli; E. coli ROB, OXA-48",0.5 µg/mL
same,MIC,E. coli; E. coli SYD (CMY-2),0.12 µg/mL
same,MIC,"E. coli; E. coli SYD, CMY-2, non-carbapenemase producer",0.12 µg/mL
same,MIC,"E. coli; E. coli TWA, IMP-8 + SHV-12",6 µg/mL
same,MIC,"E. coli; E. coli ZAN, OXA-48 + TEM-1 + CTX-M-14",0.38 µg/mL
same,MIC,"E. coli; strain E. coli 1008, TEM-1 + CTX-M-1, non-carbapenemase producer",0.19 µg/mL
same,MIC,"E. coli; strain E. coli 1034, TEM-1 + SHV-38, non-carbapenemase producer",0.19 µg/mL
same,MIC,"E. coli; strain E. coli 1048, TEM-1 + SHV-2a, non-carbapenemase producer",0.19 µg/mL
same,MIC,"E. coli; strain E. coli 10121, CTX-M-2, non-carbapenemase producer",0.19 µg/mL
same,MIC,"E. coli; strain E. coli AME, OXA-48 + CTX-M-24",0.25 µg/mL
same,MIC,"E. coli; strain E. coli BON, OXA-48 + TEM-1 + CTX-M-24",0.38 µg/mL
same,MIC,"E. coli; strain E. coli BOU, OXA-48 + CTX-M-15",0.5 µg/mL
same,MIC,"E. coli; strain E. coli ECA, ACC-1, non-carbapenemase producer",0.12 µg/mL
same,MIC,"E. coli; strain E. coli EVB, VEB-1, non-carbapenemase producer",0.12 µg/mL
same,MIC,"E. coli; strain E. coli FOR, CTX-M-15, non-carbapenemase producer",0.12 µg/mL
same,MIC,"E. coli; strain E. coli HB4, (OmpC-, OmpF-), non-carbapenemase producer",0.12 µg/mL
same,MIC,"E. coli; strain E. coli JAP, IMP-1",0.5 µg/mL
same,MIC,"E. coli; strain E. coli MAR, Overexpressed AmpC, non-carbapenemase producer",16 µg/mL
same,MIC,"E. coli; strain E. coli MET, Chromosome-encoded extended-spectrum cephalosporinase, non-carbapenemase producer",0.12 µg/mL
same,MIC,"E. coli; strain E. coli ROB, OXA-48",0.5 µg/mL
same,MIC,"E. coli; strain E. coli SYD, CMY-2, non-carbapenemase producer",0.12 µg/mL
same,MIC,"E. aerogenes; E. aerogenes 1009, TEM-24, non-carbapenemase producer",0.19 µg/mL
same,MIC,E. aerogenes; E. aerogenes 1085 (TEM-24),0.12 µg/mL
same,MIC,"E. aerogenes; E. aerogenes 1085, TEM-24, non-carbapenemase producer",0.12 µg/mL
same,MIC,"E. aerogenes; strain E. aerogenes 1085, TEM-24, non-carbapenemase producer",0.12 µg/mL
same,MIC,S. typhimurium; S. typhimurium 1081 (CTX-M-1),0.25 µg/mL
same,MIC,"S. typhimurium; S. typhimurium 1081, CTX-M-1, non-carbapenemase producer",0.25 µg/mL
same,MIC,"S. typhimurium; strain S. typhimurium 1081, CTX-M-1, non-carbapenemase producer",0.25 µg/mL
same,MIC,"C. koseri; C. koseri ROU, OXA-48",0.38 µg/mL
same,MIC,C. koseri; C. koseri VER (OXA-48),0.75 µg/mL
same,MIC,"C. koseri; C. koseri VER, OXA-48",0.75 µg/mL
same,MIC,"C. koseri; strain C. koseri VER, OXA-48",0.75 µg/mL
same,MIC,P. stuartii; P. stuartii NDM (NDM-1 + OXA-1 + CMY-6),12 µg/mL
same,MIC,P. stuartii; P. stuartii PS1 (NDM-1 + CMY-6 + OXA-1),12 µg/mL
same,MIC,"P. stuartii; P. stuartii PS1, NDM-1 + CMY-6 + OXA-1",12 µg/mL
same,MIC,"P. stuartii; strain P. stuartii PS1, NDM-1 + CMY-6 + OXA-1",12 µg/mL
same,MIC,"E. cloacae; E. cloacae 501, OXA-48 + TEM-1 + CTX-M-15",1 µg/mL
same,MIC,"E. cloacae; E. cloacae 1012, TEM-1 + SHV-12, non-carbapenemase producer",0.19 µg/mL
same,MIC,"E. cloacae; E. cloacae 1019, TEM-1, non-carbapenemase producer, overexpressed AmpC",0.25 µg/mL
same,MIC,"E. cloacae; E. cloacae 1027, TEM-1 + CTX-M-15, non-carbapenemase producer",0.19 µg/mL
same,MIC,"E. cloacae; E. cloacae 1072, TEM-1 + OXA-1, non-carbapenemase producer, overexpressed AmpC",0.38 µg/mL
same,MIC,E. cloacae; E. cloacae 5434 (wild type),0.38 µg/mL
same,MIC,"E. cloacae; E. cloacae 5434, (wild type), non-carbapenemase producer",0.38 µg/mL
same,MIC,"E. cloacae; E. cloacae 7725, (wild type), non-carbapenemase producer",0.19 µg/mL
same,MIC,"E. cloacae; E. cloacae 7746, (wild type), non-carbapenemase producer",0.38 µg/mL
same,MIC,E. cloacae; E. cloacae 10111 (TEM-1 + CTX-M-15),0.5 µg/mL
same,MIC,"E. cloacae; E. cloacae 10111, TEM-1 + CTX-M-15, non-carbapenemase producer, overexpressed AmpC",0.5 µg/mL
same,MIC,"E. cloacae; E. cloacae 1008029, VIM-1+ CTX-M-3",>32 µg/mL
same,MIC,"E. cloacae; E. cloacae 1008079, IMP-1",8 µg/mL
same,MIC,"E. cloacae; E. cloacae 1008187, IMP-1 + CTX-M-15",8 µg/mL
same,MIC,E. cloacae; E. cloacae (KPC-2),4 µg/mL
same,MIC,E. cloacae; E. cloacae ARF (overexpressed AmpC),0.12 µg/mL
same,MIC,"E. cloacae; E. cloacae ARF, Overexpressed AmpC, non-carbapenemase producer",0.12 µg/mL
same,MIC,E. cloacae; E. cloacae AZA (overexpressed AmpC),0.12 µg/mL
same,MIC,"E. cloacae; E. cloacae AZA, Overexpressed AmpC, non-carbapenemase producer",0.12 µg/mL
same,MIC,"E. cloacae; E. cloacae BEU, OXA-48 + TEM-1 + CTX-M-15 + SHV-12",0.5 µg/mL
same,MIC,E. cloacae; E. cloacae BLA (overexpressed AmpC),0.12 µg/mL
same,MIC,"E. cloacae; E. cloacae BLA, Overexpressed AmpC, non-carbapenemase producer",0.12 µg/mL
same,MIC,"E. cloacae; E. cloacae CFVL, KPC-2 + TEM-3",4 µg/mL
same,MIC,E. cloacae; E. cloacae CLO (CTX-M-15),0.12 µg/mL
same,MIC,"E. cloacae; E. cloacae CLO, CTX-M-15, non-carbapenemase producer",0.12 µg/mL
same,MIC,E. cloacae; E. cloacae CON (overexpressed AmpC),0.12 µg/mL
same,MIC,"E. cloacae; E. cloacae CON, Overexpressed AmpC, non-carbapenemase producer",0.25 µg/mL
same,MIC,E. cloacae; E. cloacae CVB (VEB-1),0.12 µg/mL
same,MIC,"E. cloacae; E. cloacae CVB, VEB-1, non-carbapenemase producer",0.12 µg/mL
same,MIC,"E. cloacae; E. cloacae HMG, KPC-2 + TEM-1",24 µg/mL
same,MIC,E. cloacae; E. cloacae HPTU (KPC-2 + TEM-1 + SHV-11),2 µg/mL
same,MIC,"E. cloacae; E. cloacae HPTU, KPC-2 + TEM-1 + SHV-11",2 µg/mL
same,MIC,E. cloacae; E. cloacae IR38 (NDM-1 + CTX-M-15),2 µg/mL
same,MIC,"E. cloacae; E. cloacae IR38, NDM-1 + CTX-M-15",2 µg/mL
same,MIC,"E. cloacae; E. cloacae KAR, VIM-1+ SHV-70",1 µg/mL
same,MIC,E. cloacae; E. cloacae TAW (IMP-8 + SHV-12),0.75 µg/mL
same,MIC,"E. cloacae; E. cloacae TAW, IMP-8 + SHV-12",0.75 µg/mL
same,MIC,E. cloacae; E. cloacae TUR (OXA-48 + SHV-5),0.5 µg/mL
same,MIC,"E. cloacae; E. cloacae TUR, OXA-48 + SHV-5",0.5 µg/mL
same,MIC,"E. cloacae; E. cloacae TWA, IMP-8",1.5 µg/mL
same,MIC,"E. cloacae; strain E. cloacae 10111, TEM-1 + CTX-M-15, non-carbapenemase producer",0.5 µg/mL
same,MIC,"E. cloacae; strain E. cloacae BLA, Overexpressed AmpC, non-carbapenemase producer",0.12 µg/mL
same,MIC,"E. cloacae; strain E. cloacae CLO, CTX-M-15, non-carbapenemase producer",0.12 µg/mL
same,MIC,"E. cloacae; strain E. cloacae CON, Overexpressed AmpC, non-carbapenemase producer",0.12 µg/mL
same,MIC,"E. cloacae; strain E. cloacae CVB, VEB-1, non-carbapenemase producer",0.12 µg/mL
same,MIC,"E. cloacae; strain E. cloacae HPTU, KPC-2 + TEM-1 + SHV-11",2 µg/mL
same,MIC,"E. cloacae; strain E. cloacae TAW, IMP-8 + SHV-12",0.75 µg/mL
same,MIC,"E. cloacae; strain E. cloacae TUR, OXA-48 + SHV-5",0.5 µg/mL
